# Measured values reported in ChEMBL document CHEMBL1201861, “Genomics of Drug Sensitity in Cancer screening data, Wellcome Trust Sanger Institute”.
# Columns and labels:
# [1] = tested on: RD; assay: cells; format: functional, cell-based, Homo sapiens; details: Homo sapiens, RD
# Description: SANGER: Inhibition of human RD cell growth in a cell viability assay.
# [2] = tested on: ARH-77; assay: cells; format: functional, cell-based, Homo sapiens; details: Homo sapiens, ARH-77;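 further: growth inhibition of ARH-77 cells, read out by a cell viability assay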
# Description: SANGER: Inhibition of human ARH-77 cell growth in a cell viability assay.
# [3] = tested on: CAPAN-1; assay: cells; format: functional, cell-based, Homo sapiens; details: Homo sapiens, CAPAN-1;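 further: growth suppression of CAPAN-1 cells, read out by a cell viability assay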
# Description: SANGER: Inhibition of human CAPAN-1 cell growth in a cell viability assay.
# [4] = tested on: CAL-72; assay: cells; format: functional, cell-based, Homo sapiens; details: Homo sapiens, CAL-72;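 further: cell viability assay measuring inhibition of proliferation in the CAL-72 cell line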
# Description: SANGER: Inhibition of human CAL-72 cell growth in a cell viability assay.
# [5] = tested on: HCC1395; assay: cells; format: functional, cell-based, Homo sapiens; details: Homo sapiens, HCC1395;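 further: growth inhibition of HCC1395 cells, read out by a cell viability assay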
# Description: SANGER: Inhibition of human HCC1395 cell growth in a cell viability assay.
# [6] = tested on: DMS-273; assay: cells; format: functional, cell-based, Homo sapiens; details: Homo sapiens, DMS-273
# Description: SANGER: Inhibition of human DMS-273 cell growth in a cell viability assay.
# [7] = tested on: COR-L279; assay: SANGER: Inhibition of human COR-L279 cell growth in a cell viability assay.; format: functional, cell-based; details: Homo sapiens, COR-L279
# [8] = tested on: SW48; assay: cells; format: functional, cell-based, Homo sapiens; details: Homo sapiens, SW48;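 further: growth inhibition of SW48 cells, read out with a cell viability assay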
# Description: SANGER: Inhibition of human SW48 cell growth in a cell viability assay.
# [9] = tested on: SW948; assay: cells; format: functional, cell-based, Homo sapiens; details: Homo sapiens, SW948;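 further: growth inhibition of SW948 cells, read out with a cell viability assay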
# Description: SANGER: Inhibition of human SW948 cell growth in a cell viability assay.
# [10] = tested on: LB647-SCLC; assay: cells; format: functional, cell-based, Homo sapiens; details: Homo sapiens, LB647-SCLC;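 further: cell growth inhibition, read out by a viability assay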
# Description: SANGER: Inhibition of human LB647-SCLC cell growth in a cell viability assay.
# [11] = tested on: SiHa; assay: cells; format: functional, cell-based, Homo sapiens; details: Homo sapiens, SiHa;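 further: Viability-based readout of growth inhibition in SiHa cells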
# Description: SANGER: Inhibition of human SiHa cell growth in a cell viability assay.
# [12] = tested on: HTC-C3; assay: cells; format: functional, cell-based, Homo sapiens; details: Homo sapiens, HTC-C3;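 further: inhibition of cell growth, read out with a cell viability assay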
# Description: SANGER: Inhibition of human HTC-C3 cell growth in a cell viability assay.
# [13] = tested on: CAL-120; assay: cells; format: functional, cell-based, Homo sapiens; details: Homo sapiens, CAL-120;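 further: cell growth inhibition, read out as cell viability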
# Description: SANGER: Inhibition of human CAL-120 cell growth in a cell viability assay.
# [14] = tested on: J82; assay: cells; format: functional, cell-based, Homo sapiens; details: Homo sapiens, J82;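 further: growth inhibition of J82 cells, read out with a cell viability assay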
# Description: SANGER: Inhibition of human J82 cell growth in a cell viability assay.
# [15] = tested on: JIYOYE; assay: cells; format: functional, cell-based, Homo sapiens; details: Homo sapiens, JIYOYE
# Description: SANGER: Inhibition of human JiyoyeP-2003 cell growth in a cell viability assay.
# [16] = tested on: EFO-27; assay: cells; format: functional, cell-based, Homo sapiens; details: Homo sapiens, EFO-27;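 further: growth inhibition of EFO-27 cells, read out with a cell viability assay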
# Description: SANGER: Inhibition of human EFO-27 cell growth in a cell viability assay.
# [17] = tested on: 23132-87; assay: cells; format: functional, cell-based, Homo sapiens; details: Homo sapiens
# Description: SANGER: Inhibition of human 23132-87 cell growth in a cell viability assay.
# [18] = tested on: MHH-CALL-2; assay: cells; format: functional, cell-based, Homo sapiens; details: Homo sapiens, MHH-CALL-2;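 further: growth inhibition of the cell line, read out in a cell viability assay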
# Description: SANGER: Inhibition of human MHH-CALL-2 cell growth in a cell viability assay.
# [19] = tested on: NCI-H2452; assay: cells; format: functional, cell-based, Homo sapiens; details: Homo sapiens, NCI-H2452;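 further: growth inhibition of NCI-H2452 cells, read out with a cell viability assay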
# Description: SANGER: Inhibition of human NCI-H2452 cell growth in a cell viability assay.
# [20] = tested on: OE19; assay: cells; format: functional, cell-based, Homo sapiens; details: Homo sapiens, OE19;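 further: growth inhibition of OE19 cells, measured through a cell viability read-out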
# Description: SANGER: Inhibition of human OE19 cell growth in a cell viability assay.
# [21] = tested on: ST486; assay: SANGER: Inhibition of human ST486 cell growth in a cell viability assay.; format: functional, cell-based; details: Homo sapiens, ST486
# [22] = tested on: BCPAP; assay: cells; format: functional, cell-based, Homo sapiens; details: Homo sapiens, BCPAP;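 further: growth inhibition of BCPAP cells, read out in a cell viability assay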
# Description: SANGER: Inhibition of human BCPAP cell growth in a cell viability assay.
# [23] = tested on: 5637; assay: cells; format: functional, cell-based, Homo sapiens; details: Homo sapiens
# Description: SANGER: Inhibition of human 5637 cell growth in a cell viability assay.
# [24] = tested on: HCC1419; assay: cells; format: functional, cell-based, Homo sapiens; details: Homo sapiens, HCC1419;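 further: growth inhibition of human HCC1419 cells, read out as cell viability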
# Description: SANGER: Inhibition of human HCC1419 cell growth in a cell viability assay.
# [25] = tested on: NCI-H441; assay: cells; format: functional, cell-based, Homo sapiens; details: Homo sapiens, NCI-H441;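 further: growth inhibition of NCI-H441 cells, read out with a cell viability assay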
# Description: SANGER: Inhibition of human NCI-H441 cell growth in a cell viability assay.
# [26] = tested on: SW1710; assay: cells; format: functional, cell-based, Homo sapiens; details: Homo sapiens, SW1710;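 further: growth inhibition of SW1710 cells, determined with a cell viability assay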
# Description: SANGER: Inhibition of human SW1710 cell growth in a cell viability assay.
# [27] = tested on: FaDu; assay: cells; format: functional, cell-based, Homo sapiens; details: Homo sapiens, FaDu;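 further: cell viability readout of growth inhibition in FaDu cells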
# Description: SANGER: Inhibition of human FADU cell growth in a cell viability assay.
# [28] = tested on: NCI-H650; assay: cells; format: functional, cell-based, Homo sapiens; details: Homo sapiens, NCI-H650;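 further: growth inhibition of NCI-H650 cells, read out by a viability assay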
# Description: SANGER: Inhibition of human NCI-H650 cell growth in a cell viability assay.
# [29] = tested on: NALM-6; assay: cells; format: functional, cell-based, Homo sapiens; details: Homo sapiens, NALM-6;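 further: growth inhibition of NALM-6 cells, read out with a cell viability assay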
# Description: SANGER: Inhibition of human NALM-6 cell growth in a cell viability assay.
# [30] = tested on: NCI-H2405; assay: cells; format: functional, cell-based, Homo sapiens; details: Homo sapiens, NCI-H2405;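 further: growth inhibition of the human cell line, read out with a cell viability assay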
# Description: SANGER: Inhibition of human NCI-H2405 cell growth in a cell viability assay.
# [31] = tested on: TCC-SUP; assay: cells; format: functional, cell-based, Homo sapiens; details: Homo sapiens, TCC-SUP;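 further: growth inhibition of TCC-SUP cells, read out with a cell viability assay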
# Description: SANGER: Inhibition of human TCCSUP cell growth in a cell viability assay.
# [32] = tested on: NCI-H1623; assay: cells; format: functional, cell-based, Homo sapiens; details: Homo sapiens, NCI-H1623;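 further: cell viability assay used as the read-out for growth inhibition of NCI-H1623 cells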
# Description: SANGER: Inhibition of human NCI-H1623 cell growth in a cell viability assay.
# [33] = tested on: MRK-nu-1; assay: cells; format: functional, cell-based, Homo sapiens; details: Homo sapiens, MRK-nu-1;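 further: cell viability assay measuring growth suppression of human MRK-nu-1 cells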
# Description: SANGER: Inhibition of human MRK-nu-1 cell growth in a cell viability assay.
# [34] = tested on: BT-20; assay: cells; format: functional, cell-based, Homo sapiens; details: Homo sapiens, BT-20;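 further: cell viability assay measuring suppression of growth in human BT-20 cells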
# Description: SANGER: Inhibition of human BT-20 cell growth in a cell viability assay.
# [35] = tested on: SW626; assay: cells; format: functional, cell-based, Homo sapiens; details: Homo sapiens, SW626;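 further: growth inhibition of SW626 cells, measured with a cell viability assay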
# Description: SANGER: Inhibition of human SW626 cell growth in a cell viability assay.
# [36] = tested on: KU-19-19; assay: cells; format: functional, cell-based, Homo sapiens; details: Homo sapiens, KU-19-19
# Description: SANGER: Inhibition of human KU-19-19 cell growth in a cell viability assay.
# [37] = tested on: NCI-H889; assay: cells; format: functional, cell-based, Homo sapiens; details: Homo sapiens, NCI-H889;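 further: cell growth inhibition of the cell line, read out with a viability assay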
# Description: SANGER: Inhibition of human NCI-H889 cell growth in a cell viability assay.
# [38] = tested on: AGS; assay: cells; format: functional, cell-based, Homo sapiens; details: Homo sapiens, AGS;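 further: growth inhibition of AGS cells, determined with a cell viability assay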
# Description: SANGER: Inhibition of human AGS cell growth in a cell viability assay.
# [39] = tested on: D-336MG; assay: cells; format: functional, cell-based, Homo sapiens; details: Homo sapiens, D-336MG
# Description: SANGER: Inhibition of human D-336MG cell growth in a cell viability assay.
# [40] = tested on: T-24; assay: cells; format: functional, cell-based, Homo sapiens; details: Homo sapiens, T-24;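 further: growth inhibition of T-24 cells, read out with a cell viability assay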
# Description: SANGER: Inhibition of human T-24 cell growth in a cell viability assay.
# [41] = tested on: NCI-H322M; assay: cells; format: functional, cell-based, Homo sapiens; details: Homo sapiens, NCI-H322M;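 further: cell viability assay measuring inhibition of growth of human NCI-H322M cells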
# Description: SANGER: Inhibition of human NCI-H322M cell growth in a cell viability assay.
# [42] = tested on: SNU-C1; assay: cells; format: functional, cell-based, Homo sapiens; details: Homo sapiens, SNU-C1;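 further: growth inhibition of SNU-C1 human cells, read out by a cell viability assay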
# Description: SANGER: Inhibition of human SNU-C1 cell growth in a cell viability assay.
# [43] = tested on: 8305C; assay: cells; format: functional, cell-based, Homo sapiens; details: Homo sapiens, 8305C
# Description: SANGER: Inhibition of human 8305C cell growth in a cell viability assay.
# [44] = tested on: P12-Ichikawa; assay: cells; format: functional, cell-based, Homo sapiens; details: Homo sapiens, P12-Ichikawa
# [45] = tested on: RERF-LC-MS; assay: cells; format: functional, cell-based, Homo sapiens; details: Homo sapiens, RERF-LC-MS;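 further: growth inhibition of human RERF-LC-MS cells, read out by a cell viability assay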
# Description: SANGER: Inhibition of human RERF-LC-MS cell growth in a cell viability assay.
# [46] = tested on: C3A; assay: cells; format: functional, cell-based, Homo sapiens; details: Homo sapiens, C3A;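 further: growth inhibition of C3A human cells, quantified with a cell viability readout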
# Description: SANGER: Inhibition of human C3A cell growth in a cell viability assay.
# [47] = tested on: SKG-IIIa; assay: cells; format: functional, cell-based, Homo sapiens; details: Homo sapiens, SKG-IIIa;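 further: cell growth inhibition, read out with a cell viability assay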
# Description: SANGER: Inhibition of human SKG-IIIa cell growth in a cell viability assay.
structure (smiles),measurement,setting,value
N#Cc1c(O)c2c(-c3ccc(-c4ccccc4O)cc3)csc2[nH]c1=O,IC50,[1],> 1.02 µM
same,IC50,[2],0.141 µM
same,IC50,[3],0.256 µM
same,IC50,[4],> 1.02 µM
same,IC50,[5],> 1.02 µM
same,IC50,[6],> 1.02 µM
same,IC50,[7],0.253 µM
same,IC50,[8],> 1.02 µM
same,IC50,[9],> 1.02 µM
same,IC50,[10],0.622 µM
same,IC50,[11],> 1.02 µM
same,IC50,[12],> 1.02 µM
same,IC50,[13],> 1.02 µM
same,IC50,[14],> 1.02 µM
same,IC50,[15],0.0837 µM
same,IC50,[16],> 1.02 µM
same,IC50,[17],> 1.02 µM
same,IC50,[18],> 1.02 µM
same,IC50,[19],> 1.02 µM
same,IC50,[20],> 1.02 µM
same,IC50,[21],0.135 µM
same,IC50,[22],> 1.02 µM
same,IC50,[23],> 1.02 µM
same,IC50,[24],> 1.02 µM
same,IC50,[25],> 1.02 µM
same,IC50,[26],> 1.02 µM
same,IC50,[27],> 1.02 µM
same,IC50,[28],> 1.02 µM
same,IC50,[29],0.0317 µM
same,IC50,[30],> 1.02 µM
same,IC50,[31],> 1.02 µM
same,IC50,[32],> 1.02 µM
same,IC50,[33],0.178 µM
same,IC50,[34],> 1.02 µM
same,IC50,[35],> 1.02 µM
same,IC50,[36],> 1.02 µM
same,IC50,[37],> 1.02 µM
same,IC50,[38],> 1.02 µM
same,IC50,[39],> 1.02 µM
same,IC50,[40],> 1.02 µM
same,IC50,[41],> 1.02 µM
same,IC50,[42],> 1.02 µM
same,IC50,[43],> 1.02 µM
same,IC50,[44],0.489 µM
same,IC50,[45],> 1.02 µM
same,IC50,[46],> 1.02 µM
same,IC50,[47],> 1.02 µM
O=C(O)c1ccc(-c2c[nH]c3ncc(-c4ccccc4)cc23)cc1C1CCCC1 [GSK-650394],IC50,[1],> 16 µM
same,IC50,[2],> 16 µM
same,IC50,[3],> 16 µM
same,IC50,[4],> 16 µM
same,IC50,[5],> 16 µM
same,IC50,[6],> 16 µM
same,IC50,[7],> 16 µM
same,IC50,[8],> 16 µM
same,IC50,[9],> 16 µM
same,IC50,[10],7.93 µM
same,IC50,[11],> 16 µM
same,IC50,[12],10.7 µM
same,IC50,[13],> 16 µM
same,IC50,[14],8.2 µM
same,IC50,[15],> 16 µM
same,IC50,[16],15.4 µM
same,IC50,[17],10.3 µM
same,IC50,[18],> 16 µM
same,IC50,[19],> 16 µM
same,IC50,[20],> 16 µM
same,IC50,[21],> 16 µM
same,IC50,[22],13 µM
same,IC50,[23],3.21 µM
same,IC50,[24],> 16 µM
same,IC50,[25],> 16 µM
same,IC50,[26],2.7 µM
same,IC50,[27],> 16 µM
same,IC50,[28],6.64 µM
same,IC50,[29],9.73 µM
same,IC50,[30],> 16 µM
same,IC50,[31],> 16 µM
same,IC50,[32],> 16 µM
same,IC50,[33],7.05 µM
same,IC50,[34],> 16 µM
same,IC50,[35],> 16 µM
same,IC50,[36],> 16 µM
same,IC50,[37],> 16 µM
same,IC50,[38],8.56 µM
same,IC50,[40],> 16 µM
same,IC50,[41],> 16 µM
same,IC50,[42],> 16 µM
same,IC50,[43],> 16 µM
same,IC50,[44],> 16 µM
same,IC50,[45],> 16 µM
same,IC50,[46],> 16 µM
same,IC50,[47],> 16 µM
